Results: US9556160B2, “Guanidine compound” (Astellas Pharma Inc., priority 2011, dated 2017)

Columns and labels:
[1] = molecular target: human VAP-1 enzyme (SSAO) (Homo sapiens (Human), UniProt Q16853); test: Inhibitory effect on human VAP-1 enzyme (SSAO) activity, radiochemistry-enzymatic assay with 14C-benzylamine; assay type: biochemical; conditions: CHO-expressed human VAP-1, 14C-benzylamine 1×10^−5 mol/L
Protocol: (§1) After homogenizing CHO (Chinese Hamster Ovary) cells stably expressing a human VAP-1 enzyme (SSAO) in a 50 mM phosphate buffer containing 1% NP-40, an enzyme suspension was obtained by taking the supernatant obtained by centrifugation. The enzyme suspension was preincubated with the compound of the present invention in a 96-well microplate at room temperature for 30 minutes. Subsequently, the enzyme suspension was incubated with ^14C-benzylamine (a final concentration of 1×10^−5 mol/L) to a final volume of […] at 37° C. for 1 hour. The enzymatic reaction was stopped by the addition of 2 mol/L (50 pt) of citric acid.

[2] = molecular target: rat VAP-1 enzyme (SSAO) (Rattus norvegicus (Rat), UniProt O08590); test: Inhibitory effect on rat VAP-1 enzyme (SSAO) activity, radiochemistry-enzymatic assay with 14C-benzylamine; assay type: biochemical; conditions: CHO-expressed rat VAP-1, 14C-benzylamine 1×10^−5 mol/L
Sequence of rat VAP-1 enzyme (SSAO) (O08590 whole entry): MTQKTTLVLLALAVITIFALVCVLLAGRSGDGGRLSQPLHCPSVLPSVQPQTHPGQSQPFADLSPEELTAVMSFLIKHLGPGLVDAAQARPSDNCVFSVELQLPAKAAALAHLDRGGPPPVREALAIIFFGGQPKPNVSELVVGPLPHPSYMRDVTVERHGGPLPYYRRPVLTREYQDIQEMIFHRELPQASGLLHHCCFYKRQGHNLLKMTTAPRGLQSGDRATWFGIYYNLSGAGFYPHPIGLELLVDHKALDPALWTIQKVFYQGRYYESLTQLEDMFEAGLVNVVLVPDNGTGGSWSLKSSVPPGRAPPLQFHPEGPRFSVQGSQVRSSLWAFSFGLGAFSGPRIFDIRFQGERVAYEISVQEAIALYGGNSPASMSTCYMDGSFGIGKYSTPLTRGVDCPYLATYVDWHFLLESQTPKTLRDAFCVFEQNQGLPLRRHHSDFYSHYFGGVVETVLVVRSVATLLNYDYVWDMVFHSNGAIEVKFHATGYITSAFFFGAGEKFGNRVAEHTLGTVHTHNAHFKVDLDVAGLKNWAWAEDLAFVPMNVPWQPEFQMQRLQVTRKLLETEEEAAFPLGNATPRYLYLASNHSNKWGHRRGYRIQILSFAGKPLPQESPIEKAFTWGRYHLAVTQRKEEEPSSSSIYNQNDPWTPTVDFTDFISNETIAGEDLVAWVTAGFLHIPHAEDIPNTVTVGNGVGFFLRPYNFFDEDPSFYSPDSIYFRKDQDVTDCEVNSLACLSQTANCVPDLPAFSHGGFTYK
Protocol: as §1, with “rat” for “human”, “μL)” for “pt)”, “acid. The oxidation products were extracted directly in a 200 μL toluene scintillator, and the radioactivity was measured with a scintillation spectrometer.” for “acid.”

[3] = test system: VAP-1 enzyme (SSAO) activity in rat plasma; test: Inhibitory effect on rat VAP-1 enzyme (SSAO) activity in rat plasma after oral administration; assay type: in vivo, Wistar male rats; conditions: rat plasma VAP-1 activity, oral 0.3 mg/kg; for Inhibition Ratio (%) 1 h: 1 h after administration; for Inhibition Ratio (%) 3 h: 3 h after administration; for Inhibition Ratio (%) 6 h: 6 h after administration; for Inhibition Ratio (%) 24 h: 24 h after administration
Protocol: Eight-week to twelve-week Wistar male rats were fasted for 20 hours, and orally administered with a test drug ([…]). Heparin blood collection from the tail vein was performed immediately before the administration, and at 1 h, 3 h, 6 h, 12 h, or 24 h after the administration. The resulting blood was subjected to centrifugation at 14000 rpm for 5 minutes to separate plasma, and the VAP-1 enzyme activity in the resulting plasma was measured by a radio-enzyme assay method.
For the radio-enzyme assay method, ^14C-benzylamine which is a synthetic substrate (10 μM) was reacted with the resulting plasma at 37° C., and the resulting metabolite was extracted with a mixture of toluene/ethyl acetate. The radioactivity was measured and taken as a VAP-1 enzyme activity in the plasma. The effect of the test drug was calculated from the inhibitory ratio (%) of the VAP-1 activity after the administration of the test drug relative to the VAP-1 activity in the plasma immediately before the administration.

[4] = test system: albuminuria in STZ-treated rats; test: Effect on albuminuria in rats with diabetes mellitus (STZ); assay type: in vivo, SD rats; conditions: oral 0.3 mg/kg once daily, after 4 weeks; for amount of urinary albumin excretion: 24-hour urine
Protocol: Seven-to eight-week SD rats (having weights up to 200 to 250 g during fasting) were used and fasted for 20 hours, and then intraperitoneally administered with 60 mg/ml/kg of streptozotocin (STZ) prepared with a 2 mmol/l citric acid buffer (pH 4.5). At the same time, the control rats were injected with the same amount of a 2 mmol/l citric acid buffer (pH 4.5).
The test substance was given daily for 4 weeks after the treatment with STZ. After 4 weeks of the treatment with the test substance, 24-hour urine collection was performed using metabolic cages.

Sequence of human VAP-1 enzyme (SSAO) (Q16853 whole entry): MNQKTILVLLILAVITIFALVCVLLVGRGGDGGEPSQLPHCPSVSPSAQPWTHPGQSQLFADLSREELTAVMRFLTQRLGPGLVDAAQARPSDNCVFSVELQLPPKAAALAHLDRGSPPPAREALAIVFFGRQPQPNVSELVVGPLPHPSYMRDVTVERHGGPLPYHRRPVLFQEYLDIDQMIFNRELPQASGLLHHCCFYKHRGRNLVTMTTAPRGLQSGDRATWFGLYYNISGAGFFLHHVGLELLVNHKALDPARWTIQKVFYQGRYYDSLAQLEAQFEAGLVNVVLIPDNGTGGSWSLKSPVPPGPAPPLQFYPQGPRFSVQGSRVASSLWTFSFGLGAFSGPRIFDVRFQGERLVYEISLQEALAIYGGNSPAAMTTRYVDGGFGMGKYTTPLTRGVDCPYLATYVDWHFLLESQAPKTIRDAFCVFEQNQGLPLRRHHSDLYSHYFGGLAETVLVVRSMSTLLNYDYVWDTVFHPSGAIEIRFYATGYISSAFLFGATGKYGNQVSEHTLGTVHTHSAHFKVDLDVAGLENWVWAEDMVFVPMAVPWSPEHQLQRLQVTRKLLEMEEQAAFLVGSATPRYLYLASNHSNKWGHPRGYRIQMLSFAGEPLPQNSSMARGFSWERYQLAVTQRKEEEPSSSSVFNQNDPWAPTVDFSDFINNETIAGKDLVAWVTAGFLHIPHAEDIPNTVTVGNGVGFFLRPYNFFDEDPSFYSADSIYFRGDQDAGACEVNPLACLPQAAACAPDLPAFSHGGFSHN

IC50 [1] [nM]	IC50 [2] [nM]	SMILES	Inhibition Ratio (%) 1 h [3] [%]	Inhibition Ratio (%) 3 h [3] [%]	Inhibition Ratio (%) 6 h [3] [%]	Inhibition Ratio (%) 24 h [3] [%]	urinary albumin excretion relative to that of the control group [4] [times]	amount of urinary albumin excretion [4] [mg/gCr]
5.2	2.2	CC(=O)N1CCC(COc2ncc(-c3cccc(COC(=O)NC(=N)N)c3F)cn2)CC1 [Example 11]	64	70	63	12	1.5	103
11	1.6	Cn1cc(OC2CN(c3cccc(COC(=O)NC(=N)N)c3F)C2)ccc1=O [Example 557]	53	71	56	22	2.3	105
9.6	1.6	N=C(N)NC(=O)OCc1cccc(N2CC(C3CCN(C(=O)C4CC4)CC3)C2)c1F [Example 561]	91	92	85	64		
14	1.4	COCC(=O)N1CCC(C2CN(c3cccc(COC(=O)NC(=N)N)c3F)C2)CC1 [Example 562]	79	81	78	37		
20	1.5	COCCC(=O)N1CCC(C2CN(c3cccc(COC(=O)NC(=N)N)c3F)C2)CC1 [Example 563]	69	77	70	43		
19	1.5	CS(=O)(=O)N1CCC(C2CN(c3cccc(COC(=O)NC(=N)N)c3F)C2)CC1 [Example 564]	89	90	85	59		
19	2.5	COCCOc1cc(N2CCN(c3cccc(COC(=O)NC(=N)N)c3F)CC2)ccn1 [Example 565]	77	83	71	47		
6.3	1.2	COCc1cc(N2CCN(c3cccc(COC(=O)NC(=N)N)c3F)CC2)ccn1 [Example 566]	75	74	70	38		
